The subject of the test is IL-1β production in PMA-differentiated THP-1 cells. Put plainly: IL-1β production in PMA-differentiated THP-1 cells stimulated with gramicidin (hTHP-1 assay containing 2% fetal bovine serum; Procedures 1-3). The settings on record: read-out: hTHP-1 IC50 (Average IC50 of compounds in hTHP-1 assay). It counts as cell-based, human. As for the experimental part: The following protocol is suitable for testing the activity of the compounds disclosed herein.
Procedure 1: IL-1β Production in PMA-Differentiated THP-1 Cells Stimulated with Gramicidin
THP-1 cells were purchased from the American Type Culture Collection and sub-cultured according to instructions from the supplier. Cells were cultured in complete RPMI 1640 (containing 10% heat inactivated FBS, penicillin (100 units/ml) and streptomycin (100 μg/ml)), and maintained in log phase prior to experimental setup. Prior to the experiment, compounds were dissolved in dimethyl sulfoxide (DMSO) to generate a 30 mM stock. The compound stock was first pre-diluted in DMSO to 3, 0.34, 0.042 and 0.0083 mM intermediate concentrations and subsequently spotted using Echo550 liquid handler into an empty 384-well assay plate to achieve desired final concentration (e.g. 100, 33, 11, 3.7, 1.2, 0.41, 0.14, 0.046, 0.015, 0.0051, 0.0017 μM). DMSO was backfilled in the plate to achieve a final DMSO assay concentration of 0.37%. The plate was then sealed and stored at room temperature until required.
THP-1 cells were treated with PMA (Phorbol 12-myristate 13-acetate) (20 ng/ml) for 16-18 hours. On the day of the experiment the media was removed and adherent cells were detached with trypsin for 5 minutes. Cells were then harvested, washed with complete RPMI 1640, spun down, and resuspended in RPMI 1640 (containing 2% heat inactivated FBS, penicillin (100 units/ml) and streptomycin (100 μg/ml). The cells were plated in the 384-well assay plate containing the spotted compounds at a density of 50,000 cells/well (final assay volume 50 μl). Cells were incubated with compounds for 1 hour and then stimulated with gramicidin (5 μM) (Enzo) for 2 hours. Plates were then centrifuged at 340 g for 5 min. Cell free supernatant (40 μL) was collected using a 96-channel PlateMaster (Gilson) and the production of IL-1β was evaluated by HTRF (cisbio). The plates were incubated for 18 h at 4° C. and read using the preset HTRF program (donor emission at 620 nm, acceptor emission at 668 nm) of the SpectraMax i3x spectrophotometer (Molecular Devices, software SoftMax 6). A vehicle only control and a dose titration of CRID3 (100-0.0017 μM) were run concurrently with each experiment.
Procedure 2: IL-1β Production in PMA-Differentiated THP-1 Cells Stimulated with Gramicidin
THP-1 cells were purchased from the American Type Culture Collection and sub-cultured according to instructions from the supplier. Prior to experiments, cells were cultured in complete RPMI 1640 (containing 10% heat inactivated FBS, penicillin (100 units/ml) and streptomycin (100 μg/ml)), and maintained in log phase prior to experimental setup. Prior to the experiment THP-1 were treated with PMA (Phorbol 12-myristate 13-acetate) (20 ng/ml) for 16-18 hours. Compounds were dissolved in dimethyl sulfoxide (DMSO) to generate a 30 mM stock. On the day of the experiment the media was removed and adherent cells were detached with trypsin for 5 minutes. Cells were then harvested, washed with complete RPMI 1640, spun down, resuspended in RPMI 1640 (containing 2% heat inactivated FBS, penicillin (100 units/ml) and streptomycin (100 μg/ml). The cells were plated in a 384-well plate at a density of 50,000 cells/well (final assay volume 50 μl). Compounds were first dissolved in assay medium to obtain a 5× top concentration of 500 μM. 10 step dilutions (1:3) were then undertaken in assay medium containing 1.67% DMSO. 5× compound solutions were added to the culture medium to achieve desired final concentration (e.g. 100, 33, 11, 3.7, 1.2, 0.41, 0.14, 0.046, 0.015, 0.0051, 0.0017 μM). Final DMSO concentration was at 0.37%. Cells were incubated with compounds for 1 hour and then stimulated with gramicidin (5 μM) (Enzo) for 2 hours. Plates were then centrifuged at 340 g for 5 min. Cell free supernatant (40 μL) was collected using a 96-channel PlateMaster (Gilson) and the production of IL-1β was evaluated by HTRF (cisbio). […]

[1] abbreviates: Homo sapiens, THP-1, hTHP-1 assay containing 2% fetal bovine serum, given as numeric bound.
Setting [2] is: Homo sapiens, THP-1, hTHP-1 assay containing 2% fetal bovine serum, class symbols.
Where [3] appears, read: hTHP-1 assay containing 2% fetal bovine serum, class symbols.

Each structure is given as a SMILES string. Read-outs that look alike come from different tables or passages of the source.

Turning to `CC(C)(O)c1ncc(S(N)(=O)=NC(=O)Cc2c(C3CC3)cc(F)cc2C(F)(F)F)s1` (single isomer, unassigned) [Example 197, (S) or (R)-N-(amino(2-(2-hydroxypropan-2-yl)thiazol-5-yl)(oxo)-λ^6-sulfaneylidene)-2-(2-cyclopropyl-4-fluoro-6-(trifluoromethyl)phenyl) acetamide], the IC50 under setting [1] is more than 30 µM.

`CC(C)c1ccc(F)c(C(C)C)c1CC(=O)N=S(N)(=O)c1ccc2c(cnn2C)c1` (single isomer, unassigned) [Example 198, (R) or (S)-N-(amino(1-methyl-1H-indazol-5-yl)(oxo)-λ^6-sulfaneylidene)-2-(3-fluoro-2,6-diisopropylphenyl)acetamide]: under setting [2], the IC50 was 5 to 30 µM.

Take `CC(C)c1ccc(F)c(C(C)C)c1CC(=O)N=S(N)(=O)c1ccc2c(cnn2C)c1` (single isomer, unassigned) [Example 199, (S) or (R)-N-(amino(1-methyl-1H-indazol-5-yl)(oxo)-λ^6-sulfaneylidene)-2-(3-fluoro-2,6-diisopropylphenyl)acetamide]: under setting [1], the IC50 was more than 30 µM.

Turning to `CC(C)c1ccc(F)c(C(C)C)c1CC(=O)N=S(N)(=O)c1ccc(CN(C)C)cn1` (single isomer, unassigned) [Example 200, (R) or (S)-N-(amino(5-((dimethylamino)methyl)pyridin-2-yl)(oxo)-λ^6-sulfaneylidene)-2-(3-fluoro-2,6-diisopropylphenyl)acetamide], under setting [2], the IC50 lay within 1 to 5 µM.

In the case of `CC(C)c1ccc(F)c(C(C)C)c1CC(=O)N=S(N)(=O)c1ccc(CN(C)C)cn1` (single isomer, unassigned) [Example 201, (S) or (R)-N-(amino(5-((dimethylamino)methyl)pyridin-2-yl)(oxo)-λ^6-sulfaneylidene)-2-(3-fluoro-2,6-diisopropylphenyl)acetamide], the IC50 under setting [1] is more than 30 µM.

In the case of `CC(C)c1nc(-c2cccc(C(F)(F)F)c2)c(F)c(C(C)C)c1CC(=O)N=S(N)(=O)c1cnc(C(C)(C)O)s1` (single isomer, unassigned) [Example 202, N-(amino(2-(2-hydroxypropan-2-yl)thiazol-5-yl)(oxo)-λ^6-sulfaneylidene)-2-(5-fluoro-2,4-diisopropyl-6-(3-(trifluoromethyl)phenyl)pyridin-3-yl)acetamide], the IC50 under setting [3] lay in the range of 0.2 to 1 µM.

On to `CC(C)c1ncc(F)c(C(C)C)c1CC(=O)N=S(N)(=O)c1ncc(C(C)(C)O)s1` (single isomer, unassigned) [Example 204, N-(amino(5-(2-hydroxypropan-2-yl)thiazol-2-yl)(oxo)-λ^6-sulfaneylidene)-2-(5-fluoro-2,4-diisopropylpyridin-3-yl)acetamide], for which, under setting [2], the IC50 lay within 1 to 5 µM.

`CC(C)c1ncc(F)c(C(C)C)c1CC(=O)N=S(N)(=O)c1ncc(C(C)(C)O)s1` (single isomer, unassigned) [Example 205, (S) or (R)-N-(amino(5-(2-hydroxypropan-2-yl)thiazol-2-yl)(oxo)-λ^6-sulfaneylidene)-2-(5-fluoro-2,4-diisopropylpyridin-3-yl)acetamide]: the IC50 under setting [1] was more than 30 µM.

For the compound `CC(C)c1ncc(F)c(C(C)C)c1CC(=O)N=S(N)(=O)c1nc(C(C)(C)O)cs1` (single isomer, unassigned) [Example 206, N-(amino(4-(2-hydroxypropan-2-yl)thiazol-2-yl)(oxo)-λ^6-sulfaneylidene)-2-(5-fluoro-2,4-diisopropylpyridin-3-yl)acetamide], the 50% inhibitory concentration (IC50) under setting [2] lay in the range of 0.2 to 1 µM.

As for `CC(C)c1ncc(F)c(C(C)C)c1CC(=O)N=S(N)(=O)c1nc(C(C)(C)O)cs1` (single isomer, unassigned) [Example 207, (S) or (R)-N-(amino(4-(2-hydroxypropan-2-yl)thiazol-2-yl)(oxo)-λ^6-sulfaneylidene)-2-(5-fluoro-2,4-diisopropylpyridin-3-yl)acetamide], under setting [1], the IC50 is more than 30 µM.

`CC(C)c1ncc(F)c(C(C)C)c1CC(=O)N=S(N)(=O)c1sc(C(C)(C)O)cc1F` (single isomer, unassigned) [Example 211, N-(amino(3-fluoro-5-(2-hydroxypropan-2-yl)thiophen-2-yl)(oxo)-λ^6-sulfaneylidene)-2-(5-fluoro-2,4-diisopropylpyridin-3-yl)acetamide]: the IC50 under setting [3] is 0.2 to 1 µM.

For `CC(C)c1cc2c(c(C(C)C)c1CC(=O)N=S(N)(=O)c1cnc(C(C)(C)O)s1)CCC2` (single isomer, unassigned) [Example 212, (R) or (S)-N-(amino(2-(2-hydroxypropan-2-yl)thiazol-5-yl)(oxo)-λ^6-sulfaneylidene)-2-(4,6-diisopropyl-2,3-dihydro-1H-inden-5-yl)acetamide], under setting [1], the IC50 was more than 30 µM.

In the case of `CC(C)c1cc2c(c(C(C)C)c1CC(=O)N=S(N)(=O)c1cnc(C(C)(C)O)s1)CCC2` (single isomer, unassigned) [Example 213, (S) or (R)-N-(amino(2-(2-hydroxypropan-2-yl)thiazol-5-yl)(oxo)-λ^6-sulfaneylidene)-2-(4,6-diisopropyl-2,3-dihydro-1H-inden-5-yl)acetamide], under setting [2], the IC50 was in the range of 1 to 5 µM.

`CC(C)c1cc2c(c(C(C)C)c1CC(=O)N=S(N)(=O)c1ccn(C(C)C)n1)COC2` (single isomer, unassigned) [Example 218, (R) or (S)-N-(amino(1-isopropyl-1H-pyrazol-3-yl)(oxo)-λ^6-sulfaneylidene)-2-(4,6-diisopropyl-1,3-dihydroisobenzofuran-5-yl)acetamide]: the IC50 under setting [2] lay within 5 to 30 µM.

Turning to `CC(C)c1cc2c(c(C(C)C)c1CC(=O)N=S(N)(=O)c1ccn(C(C)C)n1)COC2` (single isomer, unassigned) [Example 219, (S) or (R)-N-(amino(1-isopropyl-1H-pyrazol-3-yl)(oxo)-λ^6-sulfaneylidene)-2-(4,6-diisopropyl-1,3-dihydroisobenzofuran-5-yl)acetamide], under setting [1], the IC50 is more than 30 µM.

As for `CC(C)c1cc(F)cc(C(C)C)c1CC(=O)N=S(N)(=O)c1ccc(C(C)(C)O)cc1` (stereo not shown) [Compound 131], under setting [3], the IC50 lay in the range of 5 to 30 µM.

Regarding `CC(C)(O)c1ncc(S(N)(=O)=NC(=O)Cc2cc3c(c4c2CCC4)CCC3)s1` (stereo not shown) [Compound 259], under setting [1], the IC50 was more than 17 µM.

With `CC(C)(O)c1ncc([S@@](N)(=O)=NC(=O)Cc2cc3c(c4c2CCC4)CCC3)s1` [Compound 259a], under setting [2], the IC50 is 5 to 30 µM.

For `CC(C)(O)c1ncc([S@](N)(=O)=NC(=O)Cc2cc3c(c4c2CCC4)CCC3)s1` [Compound 259b], under setting [1], the IC50 is more than 30 µM.

Regarding `CC(C)(O)c1ncc([S@@](N)(=O)=NC(=O)Cn2c3ccccc3c3ccccc32)s1` [Compound 262a], under setting [1], the IC50 was more than 30 µM.

For the compound `CC(C)(O)c1ncc([S@](N)(=O)=NC(=O)Cn2c3ccccc3c3ccccc32)s1` [Compound 262b], the 50% inhibitory concentration (IC50) under setting [2] lay within 5 to 30 µM.

Consider `CC(C)(O)c1cnc(S(N)(=O)=NC(=O)Cc2c3c(cc4c2CCC4)CCC3)s1` (stereo not shown) [Example 4, 2-(1,2,3,5,6,7-Hexahydro-s-indacen-4-yl)-N-(5-(2-hydroxypropan-2-yl)thiazol-2-ylsulfonimidoyl)acetamide], for which the IC50 under setting [2] was in the range of 5 to 30 µM.

One may read the IC50 as the concentration that inhibits the measured activity by half.

Source of the values: US11370763B2, “Compounds and compositions for treating conditions associated with NLRP activity” (Novartis AG, priority 2017, dated 2022).
